From article PMC8351955, “Targeting Mycobacterium tuberculosis response to environmental cues for the development of effective antitubercular drugs” (PLoS Biology, 2021)
Read-outs that look alike come from different tables or passages of the source.

Experiments:
[1] = tested on: CDC1551(rv2390c′::GFP) reporter Mtb strain, response to high [Cl−]; assay: microbe, parasite or virus in culture; type: cell-based, Mycobacterium tuberculosis; conditions: Mycobacterium tuberculosis, 144 h; for activity at 20 µM: read-out: rv2390c'::GFP validation assay NPA% at 20 µM compound
[2] = tested on: CDC1551(rv1405c′::GFP) reporter Mtb strain; assay: microbe, parasite or virus in culture; type: cell-based, Mycobacterium tuberculosis; conditions: Mycobacterium tuberculosis; for activity at 10 µM: read-out: rv1405c'::GFP secondary assay NPA% at 10 µM compound; for activity at 20 µM: read-out: rv1405c'::GFP secondary assay NPA% at 20 µM compound
[3] = pH 6.4, […], DMSO positive control = 100%, read-out: Primary screen rv2390c'::GFP NPA%
[4] = 10 µM, pH 6.4, 250 mM NaCl, 6 days, read-out: rv2390c'::GFP validation assay NPA% at 10 µM compound

Structure (SMILES)	activity at 10 µM [1, 3] [%]	activity at 10 µM [1, 4] [%]	activity at 20 µM ([1]; pH 6.4, 250 mM NaCl, 6 days) [%]	activity at 10 µM [2] [%]	activity at 20 µM [2] [%]
CCNC(=O)CSc1ccc2c3c(cccc13)C(=O)c1ccccc1-2 [RU-0209034, CCNC(=O)CSC1=C2C=CC=C3C(=O)C4=C(C=CC=C4)C(C=C1)=C23]	182	128 ± 15.3	199 ± 7.5	183 ± 12.7	401 ± 7.5
O=c1[nH]c(SCC2OCCc3ccccc32)nc2[nH]ncc12 (stereo not drawn) [RU-0271878, O=C1NC(SCC2OCCC3=C2C=CC=C3)=NC2=C1C=NN2]	43.3	63.4 ± 5.5	24.3 ± 3.8	57.7 ± 7	24.9 ± 3.6
COc1ccc2c(CC(=O)Nc3nc(CN4CCCCC4)cs3)coc2c1 [RU-0204291, COC1=CC2=C(C=C1)C(CC(=O)NC1=NC(CN3CCCCC3)=CS1)=CO2]	167	99.2 ± 12.7	142 ± 13	104 ± 2.6	135 ± 13.2
CC(C)CCOc1ccc(C(=O)Nc2cc(Cl)ccc2C(N)=O)cc1 [RU-0202925, CC(C)CCOC1=CC=C(C=C1)C(=O)NC1=C(C=CC(Cl)=C1)C(N)=O]	46.5	57.1 ± 7.4	60.8 ± 9.8	63.2 ± 8.6	61.8 ± 14.4
CCc1nc(C(C#N)C(=O)/C=C/c2ccc(NC(C)=O)cc2)sc1C (stereo not drawn) [RU-0204780, CCC1=C(C)SC(=N1)C(C#N)C(=O)\C=C\C1=CC=C(NC(C)=O)C=C1]	158	112 ± 8.5	140 ± 12.3	127 ± 5.5	206 ± 16
CC(NC(=O)C1Cc2ccccc2O1)c1ccc(Cl)s1 (stereo not drawn) [RU-0272776, CC(NC(=O)C1CC2=C(O1)C=CC=C2)C1=CC=C(Cl)S1]	231	170 ± 3.6	192 ± 26.2	88.5 ± 5.6	105 ± 5.5
CC(SCc1cc(=O)n2nc(N)[nH]c2n1)c1ccccc1Cl (stereo not drawn) [RU-0182827, CC(SCC1=CC(=O)N2N=C(N)NC2=N1)C1=C(Cl)C=CC=C1]	11.2	13.3 ± 4.2	20 ± 4.4	6.6 ± 1.1	9.7 ± 3.1
Cc1ccc(-c2nc3nc(N)n(C)c(=O)c3nc2-c2ccc(C)cc2)cc1 [RU-0192424, CN1C(N)=NC2=NC(C3=CC=C(C)C=C3)=C(N=C2C1=O)C1=CC=C(C)C=C1]	160	140 ± 10.1	169 ± 12.3	97 ± 3.1	120 ± 9.3
Cc1cc(NS(=O)(=O)Cc2cccc(C(F)(F)F)c2)n(C)n1 [RU-0274447, CN1N=C(C)C=C1NS(=O)(=O)CC1=CC(=CC=C1)C(F)(F)F]	186	171 ± 11.2	252 ± 10.1	303 ± 7.6	619 ± 9.2
Cc1ccc(C(C)NC(=O)Nc2ccc(C#N)c(Cl)c2)o1 (stereo not drawn) [RU-0272807, CC(NC(=O)NC1=CC(Cl)=C(C=C1)C#N)C1=CC=C(C)O1]	160	113 ± 12.8	133 ± 5.6	90.5 ± 6.1	128 ± 12
Cc1ccc(-n2nc(C)c3c(=O)[nH]c(C(F)(F)F)nc32)cc1 [RU-0271306, CC1=NN(C2=C1C(=O)NC(=N2)C(F)(F)F)C1=CC=C(C)C=C1]	40.8	30.6 ± 2.4	36.6 ± 3.4	37.3 ± 1.3	11.5 ± 4.6
O=C(O)c1cc2ccccc2cc1NS(=O)(=O)N1CCCCC1 [RU-0210069, OC(=O)C1=C(NS(=O)(=O)N2CCCCC2)C=C2C=CC=CC2=C1]	44.6	66.4 ± 3.4	58.6 ± 5.9	52.8 ± 1.5	31.2 ± 2.6
CCCc1oncc1C(=O)NC1CC(=O)N(CCc2ccc(F)cc2)C1 (stereo not drawn) [RU-0245406, CCCC1=C(C=NO1)C(=O)NC1CN(CCC2=CC=C(F)C=C2)C(=O)C1]	172	126 ± 7.5	163 ± 6.6	87.7 ± 9	114 ± 25.7
Cc1nc2nc(-c3cccs3)nn2c(O)c1C1CCS(=O)(=O)C1 (stereo not drawn) [RU-0194400, CC1=NC2=NC(=NN2C(O)=C1C1CCS(=O)(=O)C1)C1=CC=CS1]	7.1	9.1 ± 3.9	15 ± 5.3	-2.1 ± 2.6	2.5 ± 7
COc1ccc(OC)c(C2CCCN2C(=O)NCc2cccs2)c1 (stereo not drawn) [RU-0273525, COC1=CC(C2CCCN2C(=O)NCC2=CC=CS2)=C(OC)C=C1]	150	158 ± 14.1	232 ± 6.9	119 ± 11.1	184 ± 6.5
Cc1nc(NS(=O)(=O)c2ccc(F)c(F)c2)n(-c2ccc(C#N)cc2)n1 [RU-0203361, CC1=NN(C(NS(=O)(=O)C2=CC(F)=C(F)C=C2)=N1)C1=CC=C(C=C1)C#N]	152	121 ± 1.5	160 ± 15.7	119 ± 11.5	169 ± 13.4
CCN(CC)c1ccc2c(NC3CCCCC3)nc(=O)oc2c1 [RU-0196346, CCN(CC)C1=CC2=C(C=C1)C(NC1CCCCC1)=NC(=O)O2]	183	161 ± 6.2	192 ± 12.4	110 ± 13	115 ± 9.5
COC(=O)Oc1sc2nc3ccccc3nc2c1N [RU-0193917, COC(=O)OC1=C(N)C2=C(S1)N=C1C=CC=CC1=N2]	158	166 ± 15.7	184 ± 27	111 ± 4	179 ± 15
COc1ccc(NCc2ccc(OC)c(Br)c2)cn1 [RU-0270711, COC1=NC=C(NCC2=CC(Br)=C(OC)C=C2)C=C1]	162	135 ± 4	292 ± 6.7	227 ± 8.7	603 ± 10.5
CCc1nc(C(=O)Nc2nc(C#N)c(C#N)[nH]2)nn1-c1ccccc1Cl [RU-0208082, CCC1=NC(=NN1C1=C(Cl)C=CC=C1)C(=O)NC1=NC(C#N)=C(N1)C#N]	309	258 ± 15.1	380 ± 38.2	418 ± 56.2	677 ± 106
C(=C\c1ccccc1)/Cn1nnc(-c2cccs2)n1 [RU-0207924, C(\C=C\C1=CC=CC=C1)N1N=NC(=N1)C1=CC=CS1]	152	114 ± 1.5	137 ± 4	97.4 ± 8.8	125 ± 16.3
Cc1sc(NS(=O)(=O)c2ccc(F)c(F)c2)c(C(N)=O)c1C [RU-0205217, CC1=C(C)C(C(N)=O)=C(NS(=O)(=O)C2=CC(F)=C(F)C=C2)S1]	163	128 ± 4.7	217 ± 16.5	305 ± 31.1	741 ± 74
CC(NC(=O)C1Cc2cc(Cl)ccc2O1)c1ccc(F)c(F)c1 (stereo not drawn) [RU-0272361, CC(NC(=O)C1CC2=C(O1)C=CC(Cl)=C2)C1=CC(F)=C(F)C=C1]	162	152 ± 9	215 ± 14	83.2 ± 14.8	107 ± 4.9
O=S(=O)(Nc1c(F)cccc1F)c1c(Cl)cccc1Cl [RU-0271471, FC1=CC=CC(F)=C1NS(=O)(=O)C1=C(Cl)C=CC=C1Cl]	26	46.1 ± 5.6	25.7 ± 1.9	32.2 ± 2	13.8 ± 3.7
